Values joined by “and” are separate entries in the source; they are usually repeats but may differ in a detail not shown here. Identical values can stand only once. “Also recorded” adds a separate entry of the source.
Assays:
hOCT2 [1] = test: Acute regulation of ASP+ uptake in hOCT2-HEK cells (10 min incubation with kinase/calmodulin inhibitors); format: cell-based, human; details: 1 µM ASP+, calmidazolium 5 µM, aminogenistein 10 µM, TBBz 10 µM
Experimental: (§1) The organic cation ASP^+ was used as a fluorescent substrate of hOCT2 [54]. […] To evaluate hOCT2 function, cellular fluorescence was measured before and after ASP^+ addition in the hOCT2-HEK cells and hOCT2-MDCK and EV-MDCK cysts. Transport measurements were performed at T = 37 °C. […] The effects of the CKII regulation pathway on the kinetic parameters of ASP^+ uptake in hOCT2- MDCK-3D were investigated, comparing the saturation curves in the presence or absence of the regulator.

hOCT2 [2] = molecular target: T1, hOCT2 (Homo sapiens, UniProt O15244); test: Acute regulation of ASP+ uptake and ASP+ transport kinetics in hOCT2-MDCK cysts (10 min incubation with kinase/calmodulin inhibitors); format: cell-based; set-up: The full-length hOCT2 tagged at the carboxy-terminus with GFP (hOCT2-GFP); expressed in transfected cells; host or cells: MDCK II cells (ECACC 00062107), retroviral transduction with pQCXIH, grown as cysts in BME2; details: for Acute regulation of initial ASP+ uptake after 10 min incubation: 4 µM ASP+, calmidazolium 5 µM, aminogenistein 10 µM, TBBz 10 µM
T1 sequence (O15244 1-555): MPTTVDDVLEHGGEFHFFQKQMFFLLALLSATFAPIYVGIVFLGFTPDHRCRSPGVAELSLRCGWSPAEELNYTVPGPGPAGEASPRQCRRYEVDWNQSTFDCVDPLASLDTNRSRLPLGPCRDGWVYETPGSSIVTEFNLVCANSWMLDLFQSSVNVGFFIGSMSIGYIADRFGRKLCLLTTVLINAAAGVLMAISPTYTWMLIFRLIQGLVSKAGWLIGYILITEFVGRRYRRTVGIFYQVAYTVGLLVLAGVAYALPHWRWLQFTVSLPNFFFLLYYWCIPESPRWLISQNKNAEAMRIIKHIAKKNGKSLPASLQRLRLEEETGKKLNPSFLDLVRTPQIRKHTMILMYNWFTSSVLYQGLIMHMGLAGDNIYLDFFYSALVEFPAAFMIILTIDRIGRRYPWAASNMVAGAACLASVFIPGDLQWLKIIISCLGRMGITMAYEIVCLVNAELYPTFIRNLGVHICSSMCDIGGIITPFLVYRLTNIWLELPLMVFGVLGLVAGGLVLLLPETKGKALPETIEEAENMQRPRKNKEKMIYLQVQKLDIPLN
Experimental: as §1

hOCT2 [3] = molecular target: T1, hOCT2; test: ASP+ uptake (saturation and inhibition) in hOCT2-MDCK cysts; format: cell-based; set-up: The full-length hOCT2 tagged at the carboxy-terminus with GFP (hOCT2-GFP); expressed in transfected cells; host or cells: MDCK II cells (ECACC 00062107), retroviral transduction with pQCXIH, grown as cysts in BME2
hOCT2 [4] = molecular target: T1, hOCT2; test: ASP+ uptake (saturation and inhibition) in hOCT2-HEK cells; format: cell-based; set-up: expressed in transfected cells; host or cells: HEK293, stably transfected; gift of Prof; Koepsell (University of Würzburg)
endogenous canine OCT2 = test: ASP+ uptake in EV-MDCK cysts (empty vector); format: cell-based; details: EV-MDCK cysts (GFP alone); 1 mM TPA+
Experimental: Upon the addition of 4 µM ASP^+, an increase in cellular fluorescence was observed over time. This fluorescence increase was much higher in the hOCT2-MDCK than the EV-MDCK cysts. […] The slope of the linear range of the ASP^+ uptake increase measured in the first 2 min after ASP^+ addition (arbitrary fluorescence units/[…]) was used as the measurement of the transporter function.
The organic cation ASP^+ was used as a fluorescent substrate of hOCT2 [54]. […] To evaluate hOCT2 function, cellular fluorescence was measured before and after ASP^+ addition in the hOCT2-HEK cells and hOCT2-MDCK and EV-MDCK cysts. Transport measurements were performed at T = 37 °C.

[5] = hOCT2-MDCK cysts, 4 µM ASP+, 37 °C
[6] = hOCT2-MDCK cysts, 4 µM ASP+, 37 °C, read-out: IC50 for the inhibition of ASP+ uptake
[7] = hOCT2-HEK cells, 1 µM ASP+, 37 °C
[8] = hOCT2-HEK cells, 1 µM ASP+, 37 °C, read-out: IC50 for the inhibition of ASP+ uptake

Row | Compound | Acute regulation of initial ASP+ uptake after 10 min incubation (hOCT2 [1]) | Acute regulation of initial ASP+ uptake after 10 min incubation (hOCT2 [2]) | logIC50 ± SEM for the inhibition of ASP+ uptake (hOCT2 [3]; [5]) | IC50 (hOCT2 [3]; [6]) | logIC50 ± SEM for the inhibition of ASP+ uptake (hOCT2 [4]; [7]) | IC50 (hOCT2 [4]; [8]) | also measured
1 | Nc1ccc(-c2cc(=O)c3cc(O)ccc3o2)cc1 [aminogenistein] | rapid decrease in ASP^+ uptake | rapid decrease in ASP^+ uptake |  |  |  |  | 
2 | CN(C)C(=N)N=C(N)N [Metformin, metformin] |  |  | −3.05 ± 0.09 | 884 µM | −3.10 ± 0.11 | 804 µM | logIC50 ± SEM for the inhibition of ASP+ uptake (hOCT2 [3]; hOCT2-MDCK cysts, 4 µM ASP+, 37 °C, listed as metformin): −3.1 ± 0.1; logIC50 ± SEM for the inhibition of ASP+ uptake (hOCT2 [4]; hOCT2-HEK cells, 1 µM ASP+, 37 °C, listed as metformin): −3.1 ± 0.1
3 | CCCCC[N+](CCCCC)(CCCCC)CCCCC [TPA^+, tetrapentylammonium] |  |  | −6.1 ± 0.1 and −6.04 ± 0.05 |  | −5.9 ± 0.2 and −5.85 ± 0.11 |  | IC50 (hOCT2 [3]): 0.9 µM; Inhibition of uptake of 4 µM ASP+ by 1 mM competitor (hOCT2 [3]; hOCT2-MDCK cysts, 1 mM TPA+ in uptake buffer): almost completely inhibited; also recorded: completely suppressed; IC50 (hOCT2 [4]): 1.4 µM; Inhibition of uptake of 4 µM ASP+ by 1 mM competitor (endogenous canine OCT2): significantly inhibited
4 | CC[N+](CC)(CC)CC [TEA^+, tetraethylammonium] |  |  | −4.7 ± 0.1 and −4.67 ± 0.11 | 21.3 µM | −5.1 ± 0.1 and −5.12 ± 0.08 | 7.6 µM | 
5 | Brc1c(Br)c(Br)c2[nH]cnc2c1Br [TBBz, 4,5,6,7-tetrabromobenzimidazole] | only in the hOCT2-MDCK cysts | rapid decrease in ASP^+ uptake only in the hOCT2-MDCK cysts |  |  |  |  | Vmax of ASP+ transport under CKII inhibition (+TBBz) (hOCT2 [2]; 10 min preincubation with 10 µM TBBz): 3.9 ± 0.8 a.u./s^2
6 | Clc1ccc(C(c2ccc(Cl)cc2)n2cc[n+](CC(OCc3ccc(Cl)cc3Cl)c3ccc(Cl)cc3Cl)c2)cc1 (stereo not drawn) [calmidazolium] | rapid decrease in ASP^+ uptake | rapid decrease in ASP^+ uptake |  |  |  |  | 
7 | CCS(=O)(=O)N1CC(CC#N)(n2cc(-c3ncnc4[nH]ccc34)cn2)C1 [Baricitinib, baricitinib] |  |  | −4.81 ± 0.06 | 15.4 µM | −6.00 ± 0.06 | 1.1 µM | logIC50 ± SEM for the inhibition of ASP+ uptake (hOCT2 [3]; hOCT2-MDCK cysts, 4 µM ASP+, 37 °C, listed as baricitinib): −4.8 ± 0.1; logIC50 ± SEM for the inhibition of ASP+ uptake (hOCT2 [4]; hOCT2-HEK cells, 1 µM ASP+, 37 °C, listed as baricitinib): −6.0 ± 0.1
8 | CN(C)c1ccc(C=Cc2cc[n+](C)cc2)cc1 [ASP^+, 4-(4-(dimethylamino)styryl)-N-methylpyridinium] |  |  |  |  |  |  | Km (hOCT2 [3]; hOCT2-MDCK cysts, 0-20 µM ASP+, uptake in presence of 1 mM TPA+ subtracted, 37 °C, read-out: Km ± SEM of specific ASP+ uptake): 3.6 ± 1.2 µM; Km (hOCT2 [4]; hOCT2-HEK cells, 0-20 µM ASP+, uptake in presence of 1 mM TPA+ subtracted, 37 °C, read-out: Km ± SEM of specific ASP+ uptake): 3.1 ± 0.2 µM; Vmax of ASP+ transport, control (-TBBz) (hOCT2 [2]; 10 min preincubation with control solution): 6.1 ± 0.1 a.u./s^2; Km (hOCT2 [2]; 10 min preincubation with control solution, read-out: Km of ASP+ transport, control (-TBBz)): 2.6 ± 0.2 µM

From PMC8432172, “Properties of Transport Mediated by the Human Organic Cation Transporter 2 Studied in a Polarized Three-Dimensional Epithelial Cell Culture Model” (International Journal of Molecular Sciences, 2021)
